Measurements published in patent publication US20170121344A1 (Siga Technologies, Inc., priority 2009, published 2017).
Like-named read-outs stand apart in the source and are kept apart here.

Assays:
DENV-3 = test: Viral yield assay against DENV-3 in Vero cells; type: cell-based; conditions: Dengue virus
Procedure: (§1) Compounds that were active in the primary screen were tested for activity in viral yield assays. […] Vero cells in 12-well plates were infected with dengue-2 virus at a multiplicity of infection (MOI) of 0.1, treated with compound (or DMSO as a control), incubated at 37° C., harvested 48 hours post infection and titered on Vero cells as described above. The EC50 was calculated through ExcelFit. Activities against other serotypes of dengue virus were determined in a similar way.

DENV-1 = test: Viral yield assay against DENV-1 in Vero cells; type: cell-based; conditions: Dengue virus
Procedure: as §1

[1] = system: Dengue-2 (Strain New Guinea C); test: Viral yield assay against Dengue-2 in Vero cells; type: cell-based, Dengue virus; conditions: Dengue virus, DENV2, Vero cells, read-out: Activity (EC50 in μM) DENV-2
Method in brief: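 Infect Vero cells with virus (MOI 0.1), add compound or DMSO, incubate at 37° C, collect progeny at 48 hours post infection, then titrate on Vero cells to obtain EC50.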

DENV-4 = test: Viral yield assay against DENV-4 in Vero cells; type: cell-based; conditions: Dengue virus
Procedure: as §1

[2] = viral yield assay, MOI 0.1, 48 hours post infection

Row | SMILES | EC50 (DENV-3; DENV3) [µM] | EC50 (DENV-1; DENV1) [µM] | EC50 [1] [µM] | EC50 (DENV-4; DENV4) [µM] | EC50 (DENV-3; DENV3, viral yield assay) [µM] | EC50 (DENV-1; DENV1, viral yield assay) [µM] | EC50 [1, 2] [µM] | EC50 (DENV-4; DENV4, viral yield assay) [µM]
1 | NCCNc1c(C(=O)Nc2cccc(C(F)(F)F)c2)sc2nc(-c3cccs3)ccc12 [Compound 304, 3-(2-aminoethylamino)-6-(2-thienyl)-N-[3-(trifluoromethyl)phenyl]thieno[2,3-b]pyridine-2-carboxamide] | < 5 | < 5 | < 5 | < 5 |  |  |  | 
2 | Nc1c(C(=O)Nc2ccc3ccccc3c2)sc2nc3c(cc12)CCCCC3 [Compound 365, 3-amino-N-(naphthalen-2-yl)-6,7,8,9-tetrahydro-5H-cyclohexpta[b]thieno[3,2-e] pyridine-2-carboxamide] |  |  |  |  | 5 to 25 | 5 to 25 | < 5 | > 25
3 | CC(=O)c1ccc2c(N)c(C(=O)Nc3ccc(C(F)(F)F)cc3)sc2n1 [Compound 483, 6-acetyl-3-amino-N-[4-(trifluoromethyl)phenyl]thieno[2,3-b] pyridine-2-carboxamide] |  |  |  |  | < 5 | < 5 | < 5 | < 5
4 | COc1cccc(-c2ccc3c(N)c(C(=O)Nc4ccc(SC)cc4)sc3n2)c1 [Compound 566, 3-amino-6-(3-methoxyphenyl)-N-(4-methylsulfanylphenyl)thieno[2,3-b] pyridine-2-carboxamide] |  |  |  |  | < 5 | < 5 | < 5 | < 5
5 | Nc1c(C(=O)N(CCC(=O)O)c2cccc(C(F)(F)F)c2)sc2nc(-c3cccs3)ccc12 [Compound 327, 3-[N-[3-amino-6-(2-thienyl)thieno[2,3-b]pyridine-2-carbonyl]-3-(trifluoromethyl)-anilino]propanoic acid] |  |  |  |  | < 5 | < 5 | < 5 | < 5
6 | COc1cccc(-c2ccc3c(N)c(C(=O)Nc4ccccc4Oc4ccccc4)sc3n2)c1 [Compound 522, 3-amino-6-(3-methoxyphenyl)-N-(2-phenoxyphenyl)thieno[2,3-b]pyridine-2-carboxamide] |  |  |  |  | < 5 | < 5 | < 5 | < 5
7 | Nc1c(C(=O)Nc2ccc(OC(F)(F)F)cc2)sc2nc(-c3cccc(OC(F)(F)F)c3)ccc12 [Compound 332, 3-amino-6-[3-(trifluoromethoxy)phenyl]-N-[4-(trifluoromethoxy)phenyl]thieno[2,3-b]pyridine-2-carboxamide] |  |  |  |  | < 5 | < 5 | < 5 | < 5
8 | COc1ccc(-c2ccc3c(N)c(C(=O)Nc4ccc(Cl)cc4)sc3n2)cc1 [Compound 493, 3-amino-N-(4-chlorophenyl)-6-(4-methoxyphenyl)thieno[2,3-b]pyridine-2-carboxamide] |  |  |  |  | < 5 | < 5 | < 5 | < 5
9 | Nc1c(C(=O)Nc2ccc(Br)cc2)sc2nc(-c3ccc(Cl)cn3)ccc12 [Compound 349, 3-amino-N-(4-bromophenyl)-6-(5-chloro-2-pyridyl)thieno [2,3-b]pyridine-2-carboxamide] |  |  |  |  | < 5 | < 5 | < 5 | < 5
10 | COc1cccc(-c2ccc3c(N)c(C(=O)Nc4ccc(Br)cc4)sc3n2)c1 [Compound 446, 3-amino-N-(4-bromophenyl)-6-(3-methoxyphenyl)thieno[2,3-b]pyridine-2-carboxamide] |  |  |  |  | < 5 | < 5 | < 5 | < 5
11 | CN(C)CC(=O)Nc1c(C(=O)Nc2ccc(OC(F)(F)F)cc2)sc2nc3c(cc12)CN(C)CC3 [Compound 312, 3-[[2-(dimethylamino)acetyl]amino]-6-methyl-N-[4-(trifluoromethoxy)phenyl]-7,8-dihydro-5H-thieno[2,3-b][1,6]naphthyridine-2-carboxamide] | < 5 | < 5 | < 5 | < 5 |  |  |  | 
12 | COc1ccc(-c2ccc3c(N)c(C(=O)Nc4cccc(Br)c4)sc3n2)cc1 [Compound 454, 3-amino-N-(3-bromophenyl)-6-(4-methoxyphenyl)thieno[2,3-b]pyridine-2-carboxamide] |  |  |  |  | < 5 | < 5 | < 5 | < 5
13 | CN(C(=O)c1sc2nc(-c3cccs3)ccc2c1N)c1cccc(C(F)(F)F)c1 [Compound 322, 3-amino-N-methyl-6-(2-thienyl)-N-[3-(trifluoromethyl)phenyl]thieno[2,3-b]pyridine-2-carboxamide] |  |  |  |  | < 5 | < 5 | < 5 | < 5
14 | CC(F)(F)c1ccc(NC(=O)c2sc3nc(-c4ccc(Cl)cc4)ccc3c2N)cc1 [Compound 338, 3-amino-6-(4-chlorophenyl)-N-[4-(1,1-difluoro-ethyl)phenyl] thieno[2,3-b] pyridine-2-carboxamide] |  |  |  |  | < 5 | < 5 | < 5 | < 5
15 | Nc1c(C(=O)Nc2ccccc2C(F)(F)F)sc2nc(-c3cccs3)ccc12 [Compound 437, 3-amino-6-(2-thienyl)-N-[2-(trilfuoromethyl)phenyl]thieno[2,3-b] pyridine-2-carboxamide] |  |  |  |  | < 5 | < 5 | < 5 | < 5
16 | CCCCNc1c(C(=O)Nc2nnc(-c3ccccc3)s2)sc2nc3c(cc12)CCCCC3 [Compound 289, 3-(butylamino)-N-(5-phenyl-1,3,4-thiadiazol-2-yl)-6,7,8,9-tetrahydro-5H-cyclohepta[b]thieno[3,2-e]pyridine-2-carboxamide] | < 5 | < 5 | < 5 | < 5 |  |  |  | 
17 | Cc1ccc2c(N)c(C(=O)Nc3nnc(-c4ccccc4)s3)sc2n1 [Compound 284, 3-amino-6-methyl-N-(5-phenyl-1,3,4-thiadiazol-2-yl)thieno[2,3-b]pyridine-2-carboxamide] |  |  |  |  | 5 to 25 | < 5 | < 5 | > 25
18 | Nc1c(C(=O)Nc2ccc(F)cc2)sc2nc(-c3ccc(Cl)cc3)ccc12 [Compound 646, 3-amino-6-(4-chlorophenyl)-N-(4-fluorophenyl)thieno[2,3-b]pyridine-2-carboxamide] |  |  |  |  | < 5 | < 5 | < 5 | < 5
19 | COc1cccc(-c2ccc3c(N)c(C(=O)Nc4ccc(C(F)(F)F)cc4)sc3n2)c1 [Compound 448, 3-amino-6-(3-methoxyphenyl)-N-[4-(trifluoromethyl)phenyl]thieno[2,3-b] pyridine-2-carboxamide] |  |  |  |  | < 5 | < 5 | < 5 | < 5
20 | COc1ccc(-c2ccc3c(N)c(C(=O)Nc4ccccc4Br)sc3n2)cc1 [Compound 468, 3-amino-N-(2-bromophenyl)-6-(4-methoxyphenyl)thieno[2,3-b]pyridine-2-carboxamide] |  |  |  |  | < 5 | < 5 | < 5 | < 5
21 | NCCNc1c(C(=O)Nc2nnc(-c3ccccc3)s2)sc2nc3c(cc12)CCCCC3 [Compound 294, 3-((2-aminoethyl)amino)-N-(5-phenyl-1,3,4-thiadiazol-2-yl)-6,7,8,9-tetrahydro-5H-cyclohepta[b]thieno[3,2-e]pyridine-2-carboxamide] | < 5 | < 5 | < 5 | < 5 |  |  |  | 
22 | NCCNc1c(C(=O)Nc2nnc(-c3ccccc3)s2)sc2nc(Cl)ccc12 [Compound 300, 3-(2-aminoethylamino)-6-chloro-N-(5-phenyl-1,3,4-thiadiazol-2-yl)thieno[2,3-b]pyridine-2-carboxamide] | < 5 | < 5 | < 5 | < 5 |  |  |  | 
23 | Nc1c(C(=O)Nc2ccc(F)c(F)c2)sc2nc(-c3ccc(F)cc3)ccc12 [Compound 615, 3-amino-N-(3,4-difluorophenyl)-6-(4-fluorophenyl)thieno[2,3-b]pyridine-2-carboxamide] |  |  |  |  | < 5 | < 5 | < 5 | < 5
24 | Nc1c(C(=O)Nc2ccc(Cl)cc2F)sc2nc(-c3ccc4c(c3)OCO4)ccc12 [Compound 598, 3-amino-6-(1,3-benzodioxol-5-yl)-N-(4-chloro-2-fluoro-phenyl)thieno[2,3-b] pyridine-2-carboxamide] |  |  |  |  | < 5 | < 5 | < 5 | < 5
25 | COc1ccc(-c2ccc3c(N)c(C(=O)Nc4ccc(C)cc4C)sc3n2)cc1OC [Compound 530, 3-amino-6-(3,4-dimethoxyphenyl)-N-(2,4-dimethylphenyl)thieno[2,3-b]pyridine-2-carboxamide] |  |  |  |  | < 5 | < 5 | < 5 | < 5
26 | Nc1c(C(=O)Nc2nnc(-c3ccccc3)s2)sc2nc3c(cc12)C(F)CCCC3 (stereo not drawn) [Compound 330] |  |  |  |  | 5 to 25 | 5 to 25 | < 5 | 5 to 25
27 | Nc1c(C(=O)Nc2ccc(F)cc2F)sc2nc(-c3cccs3)ccc12 [Compound 471, 3-amino-N-(2,4-difluorophenyl)-6-(2-thienyl)thieno[2,3-b]pyridine-2-carboxamide] |  |  |  |  | < 5 | < 5 | < 5 | < 5
